Experiments:
[1] = Rate of extracellular ATP degradation by mouse blood in vitro (Table 6); format: in vitro ADME; details: 1 mM, 37° C.
Protocol: *Blood (450 μl) was withdrawn into a syringe containing either 50 μ
of citratedextrose or 50 μl of heparin (100 U/ml). Whole blood was the
added to 1 mM of [^3 H]ATP in saline (25 μl) and at various time
points blood aliquots (90 μl) were removed and centrifuged. Plasma (20
μl) was withdrawn and added to 1 ml of icecold trichloroacetic acid.
Thin layer chromatography on poly(ethylene)imine cellulose was performed
according to published procedures. The rate of degradation of 1 mM of
[^3 H]ATP was linear for mouse or human blood during the initial 30
minute incubation at 37° C.

human subjects = details: slow injections or infusions of the same dose (40 mg); cited from earlier work

## Nc1ncnc2c1ncn2[C@@H]1O[C@H](COP(=O)(O)OP(=O)(O)OP(=O)(O)O)[C@@H](O)[C@H]1O [ATP, adenosine 5'-triphosphate]
[1]; citrate
  Rate of extracellular ATP degradation: 6.87 pmol/µL/min
[1]; heparin
  Rate of extracellular ATP degradation: 10.21 pmol/µL/min
Human subjects
  Response to slow injection or infusion in human subjects: much lesser or no response at all

— US5049372A, “Anticancer activities in a host by increasing blood and plasma adenosine 5'-triphosphate (ATP) levels” (priority 1988, dated 1991)
